Reference: patent US20140069008A1, “PLANT C[…] UTILIZING PHOSPHITE AS A NUTRIENT AND AS A CONTROL AGENT FOR WEEDS AND ALGAE” (Centro de Investigacion y de Estudios Avanzados del …, priority 2010, published 2014)

Tests used:
[1] = system: control seedlings (wild type, Col-0); assay: Germination and growth of non-transformed seedlings in media lacking Pi, supplemented with Phi; assay type: in vivo, Arabidopsis
Method: To confirm that 35S::PTXD plants are capable of using Phi as a P source, seeds from transgenic lines and non-transformed siblings were germinated in media lacking Pi, and supplemented with Phi.
FIG. 5. Transgenic Arabidopsis plants expressing a phosphite oxidoreductase can use phosphite as a phosphorus source. (A) Comparative growth of seedlings from ptxDAt-3, -5 and -7 lines, and wild type (WT, Col-0) in solid media containing 1 mM phosphate (Pi) or 1 mM phosphite (Phi). (B) Transgenic Arabidopsis lines and WT control grown in vertical plates containing 1 mM Phi. (C) Transgenic and WT plants grown in a sterilized mixture of sand and vermiculite fertilized with Pi or Phi as phosphorus (P) source. Treatment without addition of a P source (NO P) was utilized as a control. A top view of WT plants in media containing 40 mg·kg^−1 Phi is included. Photographed plants are representative of two experiments with 8-10 plants/treatment/line each. The bar represents 5 cm to indicate scale.
FIG. 6. Growth of WT Arabidopsis and tobacco plants in phosphite-containing media. Comparative growth of Arabidopsis and tobacco non-transformed seedlings in media lacking a phosphorus (P) source supplemented with 1 mM or 0.005 mM phosphate (Pi) or 1 mM phosphite (Phi).

WT plants (tobacco) = assay: Greenhouse growth in sterilized sand and vermiculite amended with Phi, WT tobacco; assay type: in vivo, Nicotiana tabacum L. cv Xanthi; settings: substrate supplemented with Phi, after transplantation
Excerpt: (§1) To determine whether expression of the ptxD gene would enable other plant species more amenable for physiological and weed-control studies to use Phi as a P source, we generated transgenic tobacco plants harboring the 35S::PTXD construct (ptxDNt lines) (see FIG. 8). Transgenic and control seedlings were transferred to plastic bags containing a sterilized mixture of sand and vermiculite amended with either Phi or Pi as P source. […] Because the main negative effect in vitro of Phi on WT plants was on root growth, we also examined the root system of transgenic and control plants grown under different treatments. […] Transgenic plants fertilized with Phi quantitatively performed as well as WT and ptxDNt plants fertilized with Pi (see FIG. 10A).
For Arabidopsis greenhouse experiments, pots were filled with 0.3 kg of a sterilized mixture of sand and vermiculite (1:1) and mechanically mixed with either Pi (KH2PO4) or Phi (NaH2PO3.5H2O) at 10, 20, and 40 mg·kg^−1. […] At harvest, aerial parts of Arabidopsis (36 days old) and Tobacco (120 days old) plants were cut off at the soil surface and dried in a vacuum oven at 70° C. for biomass quantification. […] Photosynthesis rate was determined using a portable Li-6200 photosynthesis system (Li-Cor, Lincoln, Nebr., USA) on fully expanded, young leaves. Leaf area was calculated using the software ImageJ [35]. […]

ptxDNt plants = assay: Greenhouse growth in sterilized sand and vermiculite amended with Phi, transgenic tobacco; assay type: in vivo, Nicotiana tabacum L. cv Xanthi
Excerpt: as §1
Pi is essential for CO2 fixation in the chloroplast, and plants suffering from Pi starvation have reduced levels of photosynthesis. […] When fertilized with either Pi or Phi, ptxDNt plants had rates of photosynthesis similar to those observed for control plants grown in Pi (see FIG. 10A). The effect on photosynthesis and root system development of control plants fertilized with Phi could not be evaluated because these plants died soon after transplantation.
For Arabidopsis greenhouse experiments, pots were filled with 0.3 kg of a sterilized mixture of sand and vermiculite (1:1) and mechanically mixed with either Pi (KH2PO4) or Phi (NaH2PO3.5H2O) at 10, 20, and 40 mg·kg^−1. […] At harvest, aerial parts of Arabidopsis (36 days old) and Tobacco (120 days old) plants were cut off at the soil surface and dried in a vacuum oven at 70° C. for biomass quantification. […] Photosynthesis rate was determined using a portable Li-6200 photosynthesis system (Li-Cor, Lincoln, Nebr., USA) on fully expanded, young leaves. Leaf area was calculated using the software ImageJ [35].
FIG. 10. […] Note that Phi was not detected either in leaf or floral tissues of ptxDNt-36 plants grown in a Phi-amended substrate. * Indicates measurements that are statistically different from the corresponding control (p<0.005).

[2] = system: ptxDNt plants (ptxDNt-80); assay: Growth competition experiment, transgenic tobacco; assay type: in vivo, Nicotiana tabacum; settings: Phi fertilization, competition with B. distachyon
Excerpt: (§2) In addition to the incapacity of plants to metabolize it, Phi acts as a potentially effective herbicide mainly by interfering with the signaling pathways that induce the rescue system activated in Pi-starved plants. Cultivation of transgenic plants expressing the ptxD gene, combined with Phi as a P fertilizer, could be an effective weed control system in soils with low Pi availability. To test this idea, we carried out growth competition experiments between ptxDNt plants and the grass weed False Brome (Brachypodium distachyon), using Phi or Pi as a P fertilizer. In unfertilized soil, both B. distachyon and tobacco plants had limited growth. When soil was fertilized with Pi, the growth of both species increased, with the grass showing faster growth than the tobacco plants.
(§3) For growth competition experiments, different proportions of seeds from ptxDNt-80 and the following weeds were utilized (transgenic:weed): Ipomoea purpurea (13:30), Brachiaria plantaginea (13:60), Amaranthus hybridus (5:15), Brachypodium distachyon (50:50). All seeds were sown in a tray containing a nonsterilized mixture of sand and vermiculite (2 kg for experiments with Amaranthus hybridus and 6 kg for the rest). […] Plants were harvested (at 54 day old for Brachiaria and Ipomoea or at 40 day old for A. hybridus experiments) for biomass quantification. […]

[3] = system: transgenic tobacco line ptxDNt-80; assay: Cultivation of transgenic tobacco in non-sterilized acidic agricultural soil amended with phosphite; assay type: in vivo
Method: The results of Example 1 were obtained from greenhouse experiments with plants grown in a sterilized mixture of sand and vermiculite as the substrate. In contrast, the present example reports experiments performed in a greenhouse using a non-sterilized agricultural soil as a substrate, to determine whether the cultivation system disclosed herein works equally well with a natural substrate. Although the experiments were performed in a greenhouse, the agricultural soil was not sterilized and therefore contained soil organisms, such as bacteria and fungi, that live naturally in the soil.
An acidic agricultural soil was obtained from North Mexico. The soil has a low content of phosphorus, about 5 parts per million. The soil was used directly from the field, and was not sterilized. The soil is a sandy loam, composed of about 30% clay, 21% silt, and 49% sand, and is acidic, with a pH of 5.1. The soil has an electrical conductivity (milli-mhos per centimeter) of 0.20. The soil has 1.4% organic matter. Besides phosphorus, the soil has the following assimilable nutrients and minor elements (parts per million): nitrogen 5, potassium 100, iron 7, manganese 26, copper 0.2, and zinc 0.9. The soil has soluble cations and anions (milli-equivalents per liter) as follows: potassium 0.15, calcium 1.5, magnesium 0.5, sodium 0.5, bicarbonates 1.0, and chlorides 0.7.
A transgenic tobacco line, ptxDNt-80, was used for the experiments. The transgenic line has been modified genetically to express a bacterial phosphite oxidoreductase, namely, PtxD (SEQ ID NO:1). The soil was amended with 40, 60, or 80 parts per million of phosphorus by addition of phosphate or phosphite. Then, seeds from the transgenic and control lines were sowed on the soil. The growth of the transgenic line was measured at different days after germination.

[4] = system: False Brome (Brachypodium distachyon); assay: Growth competition experiment, weed; assay type: in vivo
Excerpt: as §2, §3

[5] = system: control plants (WT Arabidopsis); assay: Greenhouse growth in sterilized sand and vermiculite supplemented with Phi, control plants; assay type: in vivo
Method: For Arabidopsis greenhouse experiments, pots were filled with 0.3 kg of a sterilized mixture of sand and vermiculite (1:1) and mechanically mixed with either Pi (KH2PO4) or Phi (NaH2PO3.5H2O) at 10, 20, and 40 mg·kg^−1. For tobacco experiments, 3 kg of the same substrate were weighed in black plastic bags amended with 20, 40, and 80 mg·kg^−1 of Pi or Phi. One plant per pot and 8-10 plants per line per treatment were included. Pots were arranged following a completely random design in the greenhouse. At harvest, aerial parts of Arabidopsis (36 days old) and Tobacco (120 days old) plants were cut off at the soil surface and dried in a vacuum oven at 70° C. for biomass quantification. In all cases, seeds were collected separately. Photosynthesis rate was determined using a portable Li-6200 photosynthesis system (Li-Cor, Lincoln, Nebr., USA) on fully expanded, young leaves. Leaf area was calculated using the software ImageJ [35].
FIG. 5. Transgenic Arabidopsis plants expressing a phosphite oxidoreductase can use phosphite as a phosphorus source. (A) Comparative growth of seedlings from ptxDAt-3, -5 and -7 lines, and wild type (WT, Col-0) in solid media containing 1 mM phosphate (Pi) or 1 mM phosphite (Phi). (B) Transgenic Arabidopsis lines and WT control grown in vertical plates containing 1 mM Phi. […]

phosphite
growth of control seedlings [1]: completely arrested
development of WT plants (WT plants (tobacco)): completely arrested their development and died a few days after transplantation
total biomass difference versus plants under similar Pi regime (ptxDNt plants; 80 mg·kg^−1 of Phi, greater than Pi, statistically significant): 40%
total biomass versus plants under similar Pi regimes (ptxDNt plants; 20 and 40 mg·kg^−1 of Phi): slightly higher
rate of photosynthesis versus control plants grown in Pi (ptxDNt plants; fertilized with Phi): similar
increase of tobacco biomass with respect to Pi fertilization [2]: 865%
more seeds than either line fertilized with the same amount of phosphate ([3]; 20 parts per million phosphite, four months after germination): 33%
height versus transgenic or control plants fertilized with phosphate ([3]; 68 or 74 days after germination): greater height
biomass of leaves and stems versus either line fertilized with phosphate ([3]; 80 parts per million phosphite, 75 days after germination): higher biomass
total production of capsules and seeds per plant versus either line fertilized with phosphate ([3]; four months after germination): similar
decrease of weed biomass with respect to Pi fertilization ([4]; Phi fertilization, competition with ptxDNt tobacco): 90%
time at which weed growth was completely arrested ([4]; Phi used as fertilizer): 15-20 days after sowing
survival of control plants [5]: ≤ 20 days
